US20110217293A1, “Uses of morelloflavone” (priority 2008, published 2011)
Entries after “also recorded” stand apart in the source; their conditions may differ.

Legend:
[1] = system: apoE−/− mice; test: Mouse carotid artery injury assay (morphometry, TUNEL, Ki-67, p-ERK staining); assay type: in vivo; settings: for External elastic lamina area / Internal elastic lamina area / Luminal area / Medial area / Neointimal area: 0.15% diet
Method: The carotid artery injury assay was performed as described by Kuhel (16). Male apoE−/− mice were obtained from Jackson Laboratory (Bar Harbor, Me.) and maintained on a 12 hour light/dark cycle. All animal experimentation protocols were performed under institutional guidelines of animal welfare, in accordance with NIH guidelines. Mice were fed either normal rodent chow diet (5001, LabDiet) (n=10) or normal chow diet containing 0.15% morelloflavone (w/w) (n=9). This diet corresponded to 200 mg/kg morelloflavone if a 30 gm mouse consumes 4 grams of chow. Mice were placed on these diets for 7 days before they underwent carotid artery denudation by the insertion of an epoxy resin (Epon) probe as described (16).
Briefly, the entire length of the left carotid artery was exposed and the distal bifurcation of the carotid artery was looped proximally and ligated distally with a 7-0 suture. A transverse arteriotomy was made between the 7-0 silk sutures and the resin probe was inserted, advanced toward the aortic arch, and withdrawn 5 times. The probe was then removed, the proximal 7-0 suture was ligated, a 6-0 suture was secured, and the incision was closed with 5-0 sterile surgical gut. After surgery, mice were maintained on these diets 9 for 14 days before they were euthanized. After blood was sampled, the arteries of these mice were perfusion-fixed with 10% buffered formalin (pH 7.0) solution at a constant pressure of 100 mm Hg. The entire neck from each mouse was dissected, fixed further in 10% buffered formalin, decalcified, and then embedded in paraffin. Identical whole neck cross sections of […] were made from the distal side of the neck beginning at the point of the distal 7-0 ligature. Whole neck sections were used to evaluate both the injured and the uninjured control vessels on the same section. For each mouse, the 4 levels of serial sections were taken at […] intervals. These sections were stained by Verhoeff-van Gieson (VVG) staining and subjected to morphometric analyses. Images were digitized and captured using a Sony video connected to a personal computer.
Measurements were performed at a magnification of 200 using a Scion Image analysis computer program (Frederick, Md.). Data were obtained from the first 2 levels where endothelial denudation occurred. For each artery, the luminal area, area inside the internal elastic lamina (IELA), and the area encircled by external elastic lamina-IELA were measured. The intimal area (IA) was calculated as the IELA minus luminal area. For the determination of serum morelloflavone levels, animal sera were first digested by proteinase K in the presence of 0.01% SDS. Morelloflavone was then extracted into ethyl acetate and lyophilized.
For the analyses of intimal cell proliferation, apopotosis and ERK activation, Ki-67, Terminal deoxynucleotidyl transferase (TdT)-deoxyuridine nick-end labeling (TUNEL), and p-ERK staining, respectively, were performed. Ki-67 was detected using a monoclonal rabbit antibody (Clone TEC-3, DAKO North America, Inc., Carpinteria, Calif.) as described (8-9). Terminal deoxynucleotidyl transferase (TdT)-deoxyuridine nick-end labeling (TUNEL) staining (10) was performed using a FragEL™ DNA fragmentation detection kit (Oncogene Research Products, Boston, Mass.) according to the manufacturer's instructions. The Ki-67 and apoptotic indices, defined as the number of cells with DAB-positive nuclei divided by the total number of cells counted and expressed as a percentage, were then calculated. All cells within the intima were counted. Values are expressed as means±SD. Comparisons of parameters between two groups were made with Student's t test. When appropriate, ANOVA was performed to compare multiple groups. A value of P<0.05 was considered statistically significant.

[2] = system: plasma lipid peroxidation; test: Thiobarbituric acid reactive substances (TBARS) assay; assay type: in vivo, mouse; settings: treated Ldlr−/−Apobec1−/− mice, N=12
Method: EDTA-added mouse plasma was stored at −80° C. until the assay. The assay was performed using a commercially available kit according to the manufacturer's instructions. The degree of plasma lipid peroxidation was expressed in terms of equivalent malondialdehyde (MDA) concentration (Cayman Chemical Co., Ann Arbor, Mich.).

[3] = system: Ldlr−/−Apobec1−/− mice; test: Immunohistochemical and TUNEL analysis of atherosclerotic lesions; assay type: in vivo, mouse; settings: aortic root, 8 months diet
From the text: For the cross sectional analyses of atherosclerosis, the roots of the ascending aortae were embedded in OCT compound (Tissue-Tek®, Sakura-Fineteck U.S.A., Torrance, Calif.). The 5-μm cryostat sections were obtained at the levels of aortic valve leaflets and subjected to hematoxylin and eosin (H&E), TUNEL, and other immunohistochemical staining as described below. In both methods of atherosclerosis quantification, the images of aortae were digitally captured and stored in the TIFF format, using the ScanScope slide scanning system (Nikon, Melville, N.Y.). The quantification of the atherosclerotic area was performed by Image J software (NIH, Bethesda, Md.) and expressed at lesion areas (μm^2).
In order to identify within the intima vascular smooth muscle cells, macrophages, and proliferating cells, the tissue was stained using anti-smooth muscle cell alpha-actin (SMA) (catalog no. ab5694, Abcam, Cambridge, Mass.), anti-macrophage surface glycoproteins (F4/80, catalog no. ab6640, Abcam), and anti-Ki67 (Clone TEC-3, DAKO, Carpinteria, Calif.) antibodies, respectively, as described previously. Values are expressed as means±SD. Comparisons of parameters between two groups were made with the two-tailed Student's t test. When appropriate, ANOVA was performed to compare multiple groups. A value of P<0.05 was considered statistically significant.

SMILES: O=C1c2c(O)cc(O)cc2O[C@H](c2ccc(O)cc2)[C@H]1c1c(O)cc(O)c2c(=O)cc(-c3ccc(O)c(O)c3)oc12 [morelloflavone, 5,7, 4′, 5″, 7″, 3″, 4″-heptahydroxy-[3,8″]-flavonylflavanone]
- External elastic lamina area ([1]; Injured carotid artery): 103000 ± 14300 µm²
- Internal elastic lamina area ([1]; Injured carotid artery): 70000 ± 11100 µm²
- Luminal area ([1]; Injured carotid artery): 62100 ± 10700 µm²
- Medial area ([1]; Injured carotid artery): 39300 ± 15100 µm²
- Neointimal area ([1]; Injured carotid artery): 7860 ± 4050 µm²
- Neointimal area ([1]; Injured carotid artery, listed as Morelloflavone): 7860 ± 4050 µm²
- External elastic lamina area ([1]; Uninjured carotid artery): 93100 ± 9140 µm²
- Internal elastic lamina area ([1]; Uninjured carotid artery): 62900 ± 5900 µm²
- Luminal area ([1]; Uninjured carotid artery): 62300 ± 5900 µm²
- Medial area ([1]; Uninjured carotid artery): 30200 ± 14400 µm²
- Ki-67 indices ([1]; neointima of injured carotid artery): 0.17±0.41%
- TUNEL indices ([1]; neointima of injured carotid artery, index expressed as a percentage): 16.0±4.6
- sections with nuclear p-ERK signals in the neointima ([1]; one out of 8 sections of treated animals): 12.5%
- effect on ERK activation (p-ERK positivity) in the neointima ([1]; oral morelloflavone): decreases ERK activation; also recorded: reduced p-ERK positivity; also recorded: less ERK activation
- effect on injury-induced neointimal formation (restenosis) ([1]; oral, 0.15% w/w in chow, 7 days before and 14 days after injury, apoE−/− mice): significantly less neointimal formation; also recorded: reduced neointimal formation; also recorded: significantly blocked injury-induced neointimal formation; also recorded: blocks restenosis
- Thiobarbituric acid reactive substances concentration (plasma) [2]: 6.33 ± 1.47 µM
- Ki-67-positive cells in atherosclerotic lesions [3]: 0.0011±0.0003 cells/μm^2
- Ki-67 index in atherosclerotic lesions [3]: 1.6±0.5%
- SMA-positive cells (SMA index) in atherosclerotic lesions [3]: 0.0026±0.0007 cells/μm^2
- SMA-positive cells (VSMCs) in atherosclerotic lesions [3]: 15.4±3.5 cells/section
- TUNEL index in atherosclerotic lesions [3]: 0.4±0.2%
- TUNEL-positive cells in atherosclerotic lesions [3]: 0.00025±0.00008 cells/μm^2
- macrophages (F4/80-positive cells) in the lesions [3]: 32.3±8.0 cells/section
- macrophages (F4/80 index) in the lesions [3]: 0.0042±0.0018 cells/μm^2
- reduction of SMA-positive cells per section vs control [3]: 43%
- reduction of SMA-positive cells per μm^2 vs control [3]: 32%
